Test results reported in US9770481B2, “Inhibitors of NOX1” (UNIVERSITY OF PITTSBURGH—OF THE COMMONWEALTH SYSTEM OF …, priority 2011, dated 2017).
“Also recorded” adds a separate entry of the source.

Tests used:
Nox1 = molecular target: T1, Nox1 (Homo sapiens, UniProt Q9Y5S8); experiment: O2- production by COS22 cells transfected with Nox1 (cytochrome c reduction); format: cell-based; settings: COS 22; at a dose of 1.0 μM; read-out: Maximal inhibition of total O2- production
T1 construct: expressed in transfected cells; host or cells: COS22 (monkey kidney COS cells stably expressing human p22phox)
T1 sequence (Q9Y5S8 1-564): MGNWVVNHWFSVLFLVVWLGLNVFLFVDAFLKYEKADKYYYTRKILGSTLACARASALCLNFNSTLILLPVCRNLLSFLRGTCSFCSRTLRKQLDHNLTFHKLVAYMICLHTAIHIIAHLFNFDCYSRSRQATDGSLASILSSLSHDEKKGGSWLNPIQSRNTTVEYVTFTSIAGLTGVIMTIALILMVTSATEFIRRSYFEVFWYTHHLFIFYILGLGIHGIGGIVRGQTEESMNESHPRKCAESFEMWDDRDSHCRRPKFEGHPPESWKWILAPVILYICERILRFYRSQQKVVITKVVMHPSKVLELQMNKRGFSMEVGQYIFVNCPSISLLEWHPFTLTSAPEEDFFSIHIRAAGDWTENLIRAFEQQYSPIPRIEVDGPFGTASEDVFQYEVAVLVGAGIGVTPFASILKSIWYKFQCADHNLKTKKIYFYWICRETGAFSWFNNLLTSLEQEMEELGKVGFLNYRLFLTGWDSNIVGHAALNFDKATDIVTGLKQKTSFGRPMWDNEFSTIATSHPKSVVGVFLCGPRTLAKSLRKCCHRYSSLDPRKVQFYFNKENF
T1 sequence (P13498 1-195 partner): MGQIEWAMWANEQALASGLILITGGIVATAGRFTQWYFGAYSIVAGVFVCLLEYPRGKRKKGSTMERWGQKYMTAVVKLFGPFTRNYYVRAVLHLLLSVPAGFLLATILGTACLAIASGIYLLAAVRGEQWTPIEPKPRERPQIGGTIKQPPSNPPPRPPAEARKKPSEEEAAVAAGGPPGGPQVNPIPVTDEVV
Method: Experiments were performed to test the effect of NoxA1ds on O2^− production by Nox1. COS22 is a monkey kidney COST cell line expressing transgenic human p22phox and was produced by stable transfection of the full-length p22phox cDNA into parental COST wild-type cells. COS22 cells were transfected with Nox1 to express the Nox1 enzyme and were then treated with either NoxA1ds or its scrambled control (SCRMB). Production of O2^− was calculated by monitoring the reduction of cytochrome c for 15 minutes post NADPH addition and subtracting baseline cytochrome c reduction occurring in the presence of SOD.

[1] = system: rat aortic smooth muscle cells; experiment: O2- production by rat aortic smooth muscle cells under static conditions or cyclic stretch; format: cell-based
Method: FIG. 8. NoxA1ds attenuates stretch-induced O2^− production: Effect of NoxA1ds on O2^− production by rat aortic smooth muscle cells subjected to static conditions or cyclic stretch (10%, 1 Hz, 24 hrs). NoxA1ds was added 4 hrs before measuring O2^− production.
Cyclic stretching of vascular cells occurs as a result of the pulsatile nature of blood flow but is increased in hypertensive states, and has been associated with generation of ROS and possibly cell proliferation. […] At the end of 24 hrs, cells were lysed and membrane fraction O2^− production was measured using cytochrome c.

In the case of “H-EPVDALGKAKV-NH2 [NoxA1ds, [NH3^+]-EPVDALGKAKV-[CONH2]]”, the inhibition at 1 µM (Nox1) is reported as 88%, the “Cyclic stretch-induced O2- production” value ([1]; cyclic stretch 10%, 1 Hz, 24 hrs, peptide added at t=20 hrs (4 hrs before measuring)) is reported as “completely abrogated; also recorded: inhibited” and the “O2- production under static conditions” value ([1]; static, 10 μM) is reported as “negligible effect”.
